Data reported in ChEMBL document CHEMBL1201862, “PubChem BioAssay data set” (2004).
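Assay format: 96-well plates, 48-hour exposure. Abbreviation: GI50, concentration required for 50% inhibition of growth.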 Activity calls are given as the source filed them. No stated cut-off is given here; in the data, active = GI50 up to about 1.1 µM and inactive = higher.

Legend:
Test in all cases: NCI anticancer screen, dose series, 48 h
CAKI-1 = test system: CAKI-1
DU-145 = test system: DU-145
HOP-62 = test system: HOP-62
HOP-92 = test system: HOP-92
IGROV-1 = test system: IGROV-1
MCF7 = test system: MCF7
MDA-N = test system: MDA-N
NCI-H226 = test system: NCI-H226
NCI-H23 = test system: NCI-H23
NCI/ADR-RES = test system: NCI/ADR-RES
OVCAR-5 = test system: OVCAR-5
PC-3 = test system: PC-3
RXF 393 = test system: RXF 393
SF-268 = test system: SF-268
SF-295 = test system: SF-295
SF-539 = test system: SF-539
SW-620 = test system: SW-620
U-251 = test system: U-251
UACC-62 = test system: UACC-62
TK-10 = test system: TK-10

SMILES | GI50 (CAKI-1) | GI50 (DU-145) | GI50 (HOP-62) | GI50 (HOP-92) | GI50 (IGROV-1) | GI50 (MCF7) | GI50 (MDA-N) | GI50 (NCI-H226) | GI50 (NCI-H23) | GI50 (NCI/ADR-RES) | GI50 (OVCAR-5) | GI50 (PC-3) | GI50 (RXF 393) | GI50 (SF-268) | GI50 (SF-295) | GI50 (SF-539) | GI50 (SW-620) | GI50 (U-251) | GI50 (UACC-62) | GI50 (TK-10)
COc1cc(C2C3=C(COC3=O)OC(C)(C)Oc3cc4c(cc32)OCO4)cc(OC)c1OC (centres undefined) | 2.27 µM (inactive) | 0.34 µM (active) | 0.509 µM (active) | 3.58 µM (inactive) | 0.521 µM (active) | 0.415 µM (active) | 0.212 µM (active) | 0.885 µM (active) | 0.384 µM (active) | 0.299 µM (active) | 3.72 µM (inactive) | 0.344 µM (active) | 0.259 µM (active) | 0.405 µM (active) | 0.222 µM (active) | 0.212 µM (active) | 0.348 µM (active) | 0.447 µM (active) | 0.35 µM (active) | 
O=CC1=C(C(=O)OC(c2ccccc2)c2ccccc2)N2C(=O)[C@@H](NC(=O)Cc3cccs3)[C@H]2SC1 | > 100 µM (inactive) | > 100 µM (inactive) |  | > 100 µM (inactive) | > 100 µM (inactive) | > 100 µM (inactive) | > 100 µM (inactive) | > 100 µM (inactive) | 73.6 µM (inactive) | > 100 µM (inactive) | > 100 µM (inactive) | > 100 µM (inactive) | > 100 µM (inactive) |  | > 100 µM (inactive) | > 100 µM (inactive) | > 100 µM (inactive) | > 100 µM (inactive) | > 100 µM (inactive) | > 100 µM (inactive)
O=C1c2cscc2C(=O)c2c(OCc3ccccc3)ccc(OCc3ccccc3)c21 | > 100 µM (inactive) | > 100 µM (inactive) | > 100 µM (inactive) | > 100 µM (inactive) | 83.2 µM (inactive) | > 100 µM (inactive) | > 100 µM (inactive) | > 100 µM (inactive) | > 100 µM (inactive) | > 100 µM (inactive) | > 100 µM (inactive) | 78.5 µM (inactive) | 75.7 µM (inactive) | > 100 µM (inactive) | > 100 µM (inactive) | > 100 µM (inactive) | > 100 µM (inactive) |  | > 100 µM (inactive) | > 100 µM (inactive)
CCN1C/C(=C\c2ccc(Cl)cc2)c2[nH]c(=O)c(C#N)c(-c3ccc(Cl)cc3)c2C1 |  | > 100 µM (inactive) | > 100 µM (inactive) | > 100 µM (inactive) | > 100 µM (inactive) | > 100 µM (inactive) | > 100 µM (inactive) | > 100 µM (inactive) | > 100 µM (inactive) | > 100 µM (inactive) | > 100 µM (inactive) | > 100 µM (inactive) | > 100 µM (inactive) | > 100 µM (inactive) |  | > 100 µM (inactive) | > 100 µM (inactive) | > 100 µM (inactive) | > 100 µM (inactive) | > 100 µM (inactive)
O=C(NNCc1ccco1)c1cc2ccccc2[nH]1 | > 100 µM (inactive) | > 100 µM (inactive) | > 52.6 µM (inactive) | 48 µM (inactive) | 50.7 µM (inactive) | 0.133 µM (active) | > 100 µM (inactive) | > 100 µM (inactive) | > 61.9 µM (inactive) | > 52.4 µM (inactive) | > 100 µM (inactive) | > 91 µM (inactive) | > 100 µM (inactive) | 38.8 µM (inactive) | 91.8 µM (inactive) | > 61.9 µM (inactive) | > 100 µM (inactive) |  | > 100 µM (inactive) | > 58.1 µM (inactive)
COc1ccc2c(c1)C(N)=C(c1ccccc1)C2=O | > 100 µM (inactive) | > 100 µM (inactive) | > 100 µM (inactive) | > 100 µM (inactive) | 63.5 µM (inactive) | > 100 µM (inactive) | > 100 µM (inactive) | 87.9 µM (inactive) | 38.8 µM (inactive) | 36.6 µM (inactive) | > 100 µM (inactive) | > 100 µM (inactive) |  | 27 µM (inactive) | 97.1 µM (inactive) | > 100 µM (inactive) | > 100 µM (inactive) | 94.4 µM (inactive) | > 100 µM (inactive) | > 100 µM (inactive)
COC(=O)c1c(O)ccc2c1c1c(n2Cc2cc(OC)cc(OC)c2)C(=O)c2ccccc2C1=O | 18.7 µM (inactive) | 21 µM (inactive) | 9.29 µM (inactive) | 4.92 µM (inactive) | 5.06 µM (inactive) | 4.63 µM (inactive) | 3.85 µM (inactive) | 14.7 µM (inactive) | 8.28 µM (inactive) | 4.06 µM (inactive) | 21 µM (inactive) | 4.39 µM (inactive) | 8.32 µM (inactive) | 8.32 µM (inactive) | 11.4 µM (inactive) | 11.5 µM (inactive) | 9.51 µM (inactive) | 8.26 µM (inactive) |  | 13 µM (inactive)
COc1ccc(/C=C2\C[C@H]3[C@@H]4CC=C5C[C@@H](OC(C)=O)CC[C@]5(C)[C@H]4CC[C@]3(C)C2=O)cc1OC | 22.5 µM (inactive) | > 100 µM (inactive) | 0.815 µM (active) | 31.7 µM (inactive) | > 100 µM (inactive) | 38.4 µM (inactive) | 39.9 µM (inactive) | 48.2 µM (inactive) | 70 µM (inactive) | 80.9 µM (inactive) | 41 µM (inactive) | 55.1 µM (inactive) | 69.5 µM (inactive) | 86.7 µM (inactive) | 0.47 µM (active) | > 100 µM (inactive) | > 100 µM (inactive) |  | > 100 µM (inactive) | 
N#CC1C=Cc2ccccc2N1C(=O)Oc1ccccc1 (centres undefined) | 84.3 µM (inactive) | 31.9 µM (inactive) |  | 58.6 µM (inactive) | 68.2 µM (inactive) | 41.8 µM (inactive) | 35.4 µM (inactive) | 42.5 µM (inactive) | 58.9 µM (inactive) | 55.5 µM (inactive) | > 100 µM (inactive) | 52.1 µM (inactive) | 66.4 µM (inactive) | 55.1 µM (inactive) |  | 69.8 µM (inactive) | 36.2 µM (inactive) | 44.1 µM (inactive) | 52.7 µM (inactive) | 44.8 µM (inactive)
N#CCC(=O)Nn1c(CC#N)nnc1Cc1ccccc1 | > 100 µM (inactive) | > 100 µM (inactive) | > 100 µM (inactive) | > 100 µM (inactive) | > 100 µM (inactive) | > 100 µM (inactive) | > 100 µM (inactive) | > 100 µM (inactive) | > 100 µM (inactive) | > 100 µM (inactive) | > 100 µM (inactive) | > 100 µM (inactive) | > 100 µM (inactive) | > 100 µM (inactive) | > 100 µM (inactive) | > 100 µM (inactive) | > 100 µM (inactive) | > 100 µM (inactive) | > 100 µM (inactive) | > 100 µM (inactive)
Nc1nc(N)c2c(n1)NC(c1ccccc1)CC(/C=C/c1ccc(Cl)cc1)=N2 (centres undefined) | 7.87 µM (inactive) | 9.23 µM (inactive) | 14.8 µM (inactive) | 3.94 µM (inactive) | 2.72 µM (inactive) | 3.48 µM (inactive) | 5.55 µM (inactive) | 6.64 µM (inactive) | 3.69 µM (inactive) | 3.15 µM (inactive) | 17 µM (inactive) | 6.59 µM (inactive) | 3.62 µM (inactive) | 15.3 µM (inactive) | 14.1 µM (inactive) | 15.5 µM (inactive) | 10.4 µM (inactive) | 5.87 µM (inactive) | 11.6 µM (inactive) | 2.56 µM (inactive)
CCOC(=O)C1C[C@H]2CO[C@H](c3ccccc3)N2C1=O (some centres undefined) | > 100 µM (inactive) | > 100 µM (inactive) |  | > 100 µM (inactive) | > 100 µM (inactive) | > 100 µM (inactive) | > 100 µM (inactive) | > 100 µM (inactive) | > 100 µM (inactive) | > 100 µM (inactive) | > 100 µM (inactive) | > 100 µM (inactive) | > 100 µM (inactive) | > 100 µM (inactive) | > 100 µM (inactive) | > 100 µM (inactive) | > 100 µM (inactive) | > 100 µM (inactive) | > 100 µM (inactive) | > 100 µM (inactive)
CC(CO)CCNc1ncnc2c1ncn2CCC(=O)O (centres undefined) | > 100 µM (inactive) | > 100 µM (inactive) | > 100 µM (inactive) | > 100 µM (inactive) | > 100 µM (inactive) | > 100 µM (inactive) | > 100 µM (inactive) | > 100 µM (inactive) | > 100 µM (inactive) | > 100 µM (inactive) | > 100 µM (inactive) | > 100 µM (inactive) | > 100 µM (inactive) | > 100 µM (inactive) | > 100 µM (inactive) | > 100 µM (inactive) | > 100 µM (inactive) |  | > 100 µM (inactive) | > 100 µM (inactive)
COc1cc2c[n+](C)c3c(c2cc1OC)Cc1cc2c(cc1-3)OCO2 | > 100 µM (inactive) | > 100 µM (inactive) | > 100 µM (inactive) | > 100 µM (inactive) | > 100 µM (inactive) | > 100 µM (inactive) | > 100 µM (inactive) | > 100 µM (inactive) | > 100 µM (inactive) | > 100 µM (inactive) | > 100 µM (inactive) | > 100 µM (inactive) |  | > 100 µM (inactive) | > 100 µM (inactive) | > 100 µM (inactive) | > 100 µM (inactive) | > 100 µM (inactive) | > 100 µM (inactive) | > 100 µM (inactive)
